Like-named read-outs stand apart in the source and are kept apart here.
Key:
[1] = tested on: parainfluenza Sendai virus (SV); assay: Sendai virus replication in 37RC cells, virus yield by HAU titration; type: cell-based; conditions: for IC50: read-out: ID50 (50% inhibitory dose/concentration)
Protocol: (§1) Monkey kidney 37RC cells were grown at 37° C. under the conditions described above for human lymphoblastoid Jurkat T cells. The parainfluenza Sendai virus (SV) was grown in the allantoic cavity of 10 day-old embryonated eggs. Viral titre was expressed in haemagglutinating units (HAU) per ml; […]. Virus yield at 24 hours after infection was determined in the supernatant of infected cells by HAU titration.
(§2) The ID50 (the 50% inhibitory dose/concentration) value at 24 hours and the TD100 (the dose or concentration at which a tested compound is 100% toxic to uninfected cells, determined visually by microscopy) for both (−)-Δ^12,14-15-deoxy-PG-J2 and for compound CTC-150 were measured and the following results were obtained.

NF-κB = assay: EMSA of NF-κB DNA-binding activity in TPA-stimulated Jurkat T cells; type: cell-based, Human; conditions: for NF-κB inhibition (in words): TPA-stimulated, EMSA
Protocol: (§3) Human lymphoblastoid Jurkat T cells were grown at 37° C. in a 5% CO2 atmosphere in RPM1 1640 medium (GIBCO BRL, Gaithersburg, Md., United States of America) supplemented with 10% fetal calf serum (FCS, Hyclone Europe Ltd, United Kingdom), 2 mM glutamine and antibiotics according to the method described by A. Rossi et al.^48 The test compound was stored as a 100% ethanolic stock solution (100 mM) or in dimethylsulfoxide (100 mM) and diluted to the appropriate concentration in culture medium at the time of use. Cells were treated with different concentrations of test compound for 1 hour and then stimulated with 12-O-tetradecanoylphorbol-13-acetate (TPA, 25 ng/ml), which is a strong inducer of NF-κB. Control cells received an equal amount of control diluent. After 3 hours, whole-cell extracts were prepared and subjected to analysis of DNA-binding activity by EMSA (Electrophoretic Mobility Shift Assay) for detection of HSF or NF-κB activation, according to the method described by A. Rossi et al.^48
(§4) Specificity of protein-DNA complexes was verified by immunoreactivity with polyclonal antibodies specific for p65 (Rel A) or for HSF-1, for NF-κB and HSF respectively. Quantitative evaluation of NF-κB- and HSF-DNA complex formation was determined by Molecular Dynamics PhosphorImager (MDP) analysis and was expressed in arbitrary units, as described by A. Rossi et al.^49 The results for (−)-Δ^12,14-15-deoxy-PG-J2 are shown in FIG. 1.

HSF = assay: EMSA of HSF DNA-binding activity in TPA-stimulated Jurkat T cells; type: cell-based, Human; conditions: 1 hour pre-treatment, TPA 25 ng/ml, extracts after 3 hours
Protocol: as §3, with “After 3 hours, whole-cell extracts were prepared and subjected to analysis of DNA-binding activity by EMSA (Electrophoretic Mobility Shift Assay) for detection of HSF or NF-κB activation, according to the method described by A. Rossi et al.^48” left out
as §4

Monkey kidney 37RC cells = type: cell-based
Protocol: as §1, §2

Compound | IC50 ([1]; Respirovirus muris, 24 h) | antiviral activity relative to (−)-Δ^12,14-15-deoxy-PG-J2 (times more active) ([1]; ratio of ID50 values, Sendai virus in 37RC cells) | IC50 (NF-κB; Homo sapiens, 1 hour pre-treatment, TPA 25 ng/ml, extracts after 3 hours, read-out: concentration required to give an NF-κB inhibition to 50% of its original level (IC50)) | NF-κB inhibition (in words) (NF-κB) | concentration required to give an HSF activation to 200% of its original level (HSF) | TD100 (concentration at which compound is 100% toxic to uninfected cells) (Monkey kidney 37RC cells; monkey) | inhibition of Sendai virus replication (in words) ([1]; 37RC cells, virus yield at 24 hours) | IC50 ([1]; virus yield at 24 hours after infection, 37RC cells, 5 HAU/10^5 cells) | TD100 (concentration at which compound is 100% toxic to uninfected cells) (Monkey kidney 37RC cells; uninfected 37RC cells, visually by microscopy)
CC1C=CC(=O)/C1=C/c1ccccc1 (stereo not shown) [CTC-150, 4-methyl-5-[1-phenyl-meth-(E)-ylidene]-cyclopent-2-enone] | 700 nM | over 4 | 7000 nM | potent inhibitor of NF-κB | 0.02 µM | >50 µM | – | – | –
CCCCC/C=C/C=C1/C(=O)C=CC1C/C=C\CCCC(=O)O (stereo not drawn) [(−)-Δ^12,14-15-deoxy-PG-J2, reference compound] | – | – | – | potent inhibitor of NF-κB | – | – | potent inhibitor of Sendai virus replication | 3000 nM | 50 µM
